Here are results for five compounds from US7504537B2, “Hydroxamic acid derivative and MMP inhibitor containing the same as active ingredient” (Dainippon Sumitomo Pharma Co., Ltd., priority 2001, dated 2009).

What all share (type): biochemical
The target of assay [1] is T1, MMP-2 (Homo sapiens, UniProt P08253).
T1 construct: purchased Boeringer Manheim (Roche Diagnostics)
T1 sequence (P08253 110-660): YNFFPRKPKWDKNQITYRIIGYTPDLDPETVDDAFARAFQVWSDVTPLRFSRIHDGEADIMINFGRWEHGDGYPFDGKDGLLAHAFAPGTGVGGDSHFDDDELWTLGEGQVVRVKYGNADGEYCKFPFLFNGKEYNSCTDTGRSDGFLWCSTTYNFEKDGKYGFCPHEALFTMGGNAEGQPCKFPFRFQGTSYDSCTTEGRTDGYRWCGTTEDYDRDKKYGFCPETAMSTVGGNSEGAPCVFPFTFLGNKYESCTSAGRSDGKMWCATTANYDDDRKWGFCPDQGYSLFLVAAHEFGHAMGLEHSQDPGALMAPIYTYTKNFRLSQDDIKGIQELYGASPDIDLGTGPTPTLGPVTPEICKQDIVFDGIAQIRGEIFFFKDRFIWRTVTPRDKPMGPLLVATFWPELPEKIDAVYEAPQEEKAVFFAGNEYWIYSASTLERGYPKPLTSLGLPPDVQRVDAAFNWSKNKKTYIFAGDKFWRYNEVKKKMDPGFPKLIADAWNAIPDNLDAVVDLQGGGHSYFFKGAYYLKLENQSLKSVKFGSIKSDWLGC
Nature of the assay: Test 3 MMP-2 inhibition activity test (gelatinase activity assay kit). Particulars: activated human MMP-2, biotin labeled gelatin. The protocol:
TTC buffer solution was attached to a MMP-2 enzyme assay kit, and the solution was made of 50 mM tris, 1 mM calcium chloride solution and 0.05% Triton X-100 solution, and was adjusted to pH 7.5.
Test 3 MMP-2 Inhibition Activity Test
MMP-2 enzyme assay kit (Gelatinase Activity Assay, Roche.Diagonistics) was used.
A mixture of 1.2U human MMP-2 (20 μl, Boeringer Manheim 30U freezed dry product), TTC buffer (980 μl) and 2.5 mM 4-aminophenyl mercuric acetate solution (144 μl) was incubated at 37° C. for 30 minutes and then it was preserved under ice cooling until use.
A mixture of DMSO solution (2 μl) containing a definite concentration of the compound, biotin labeled gelatin (188 μl) and activated MMP-2 solution (10 μl) was put on a 96 well-assay plate (protein nonabsorbance type), well agitated and incubated at 37° C. for 1 hour. This solution was transferred to a Streptavidin-coating plate and agitated at 15° C, to 30° C. for 30 minutes. And then the solution was washed with TTC buffer solution (200 μl) three times. Thereto was added Streptavidin-POD (200 μl) and the mixture was agitated at 15° C. to 25° C. for 60 minutes, followed by washing with TTC buffer (200 μl) three times. Then, ABTS solution (200 μl) was added thereto and after standing at room temperature for 40 minutes, furuorescence intensity was measure at 405 nm and IC50 was calculated.
In case of the above test, a control and a blank were prepared when the well was prepared as mentioned below. DMSO (2 μl) was used as a control instead of a sample solution. In the case of a blank, DMSO (2 μl) instead of the sample solution and the solution (10 μl) prepared in the same manner as preparation of activated MMP-2 solution but without adding 1.2U human MMP-2, instead of activated MMP-2 solution (10 μl), were used.

The target in assay [2] is MMP-9 (Homo sapiens, UniProt P14780). Nature of the assay: Test 4 MMP-9 inhibiting activity test (biotin labeled gelatin). Particulars: activated human MMP-9, biotin labeled gelatin; read-out: MMP-9 inhibition activity value. The procedure: Test 4 MMP-9 Inhibiting Activity Test
MMP-9, sequence (P14780 107-707 limits assumed): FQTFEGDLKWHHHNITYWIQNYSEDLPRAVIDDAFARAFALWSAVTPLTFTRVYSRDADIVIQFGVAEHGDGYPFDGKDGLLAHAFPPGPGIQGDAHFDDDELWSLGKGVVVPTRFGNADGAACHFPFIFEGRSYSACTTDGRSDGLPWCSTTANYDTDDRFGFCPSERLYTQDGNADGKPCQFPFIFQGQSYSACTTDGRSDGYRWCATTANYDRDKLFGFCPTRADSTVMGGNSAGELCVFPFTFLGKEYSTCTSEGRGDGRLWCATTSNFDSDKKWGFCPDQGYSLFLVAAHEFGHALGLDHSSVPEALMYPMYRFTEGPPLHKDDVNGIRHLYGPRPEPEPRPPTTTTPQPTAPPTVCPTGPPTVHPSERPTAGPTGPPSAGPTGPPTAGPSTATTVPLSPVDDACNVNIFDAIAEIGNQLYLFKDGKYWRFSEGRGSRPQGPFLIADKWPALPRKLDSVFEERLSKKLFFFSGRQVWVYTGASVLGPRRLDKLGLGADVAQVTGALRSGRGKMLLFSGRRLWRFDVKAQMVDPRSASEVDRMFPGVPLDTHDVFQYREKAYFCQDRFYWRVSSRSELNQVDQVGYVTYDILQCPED
A mixture of buffer solution (190 μl; pH 7.5 solution containing 50 mM Tris-HCl solution, 0.5 m sodium chloride solution and 5 mM calcium chloride solution), human MMP-9 (10 μl) and trypsin solution (20 μl; trypsin 3 mg in activated buffer (5 ml)) was incubated at 37° C. for 10 minutes. Thereto was added aprotinine solution (20 μl; aprotinine (3 mg) in buffer (5 ml)) and the mixture was incubated at 37° C. for 10 minutes, followed by addition of buffer (2 ml). The mixture was preserved under cooling with ice until use.
A mixture of DMSO solution (2 μl) containing definite concentration of the compound, biotin labeled gelatin (188 μl) and activated MMP-9 solution (10 μl) was put on a 96 well-assay plate (protein nonabsorbance type), well agitated, and incubated at 37° C. for 1 hour. This solution was transferred to Streptavidin-coating plate, and agitated at 15° C. to 30° C. for 30 minutes. And then the solution was washed with TTC buffer solution (200 μl) three times. Thereto was added Streptavidin-POD (200 μl) and the mixture was agitated at 15° C. to 25° C. for 60 minutes, followed by washing with TTC buffer (200 μl) three times. Then, ABTS solution (200 μl) was added thereto and after standing at room temperature for 40 minutes, furuorescence intensity was measured at 405 nm and IC50 was calculated.
In case of the above test, DMSO (2 μl) was used as a control instead of a sample solution. In the case of a blank, DMSO (2 μl) instead of the sample solution and the solution (10 μl) prepared in the same manner as preparation of […] but without adding 1.2 Uhuman MMP-9, instead of activated MMP-9 solution (10 μl), were used.

The target of assay [3] is T2, MMP-1 (Homo sapiens, UniProt P03956).
T2 construct: calbiochem cat; purchased calbiochem 444208; host or cells: human rheumatic synovium fibroblast
T2 sequence (P03956 100-469): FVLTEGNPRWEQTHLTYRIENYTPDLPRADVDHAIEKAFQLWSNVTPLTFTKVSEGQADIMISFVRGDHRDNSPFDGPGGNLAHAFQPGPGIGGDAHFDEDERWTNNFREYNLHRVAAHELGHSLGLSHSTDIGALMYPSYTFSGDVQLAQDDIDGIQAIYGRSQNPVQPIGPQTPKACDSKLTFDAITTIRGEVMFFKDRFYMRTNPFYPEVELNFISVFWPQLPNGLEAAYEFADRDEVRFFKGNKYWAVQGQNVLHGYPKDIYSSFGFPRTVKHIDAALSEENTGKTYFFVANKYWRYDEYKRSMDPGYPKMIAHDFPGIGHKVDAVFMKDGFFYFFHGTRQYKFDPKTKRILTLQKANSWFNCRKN
Nature of the assay: Test 6 MMP-1 inhibition activity test. The settings on record: MMP-1 from human rheumatic synovium fibroblast, activated with AMPA. The protocol:
Test 6 MMP-1 Inhibition Activity Test
MMP-1 (stroma collagenase: EC3.4.24.7, human rheumatic synovium fibroblast, calbiochem cat. 444208) was activated with AMPA at 37° C. for 60 minutes. A test compound was preincubated with activated MMP-1 at 37° C. for 60 minutes in the reaction mixture containing 50 mM MOPS (pH 7.2), 10 mM aqueous calcium chloride solution, and 10 μM zinc chloride. Thereto was added 25 μM Mca-Pro-Leu-Dpa-Ala-Arg-NH2, and the mixture was incubated at 37° C. for 120 minutes. The enzyme activity was measured by fluorescence intensity of Mca-Pro-Leu-Gly, and IC50 was calculated.

Turning to `CCOC(=O)CN(CC(=O)NO)S(=O)(=O)c1ccc(Oc2ccc(S(C)(=O)=O)cc2)cc1` [Example 22, Ethyl N-{[(hydroxyamino)carbonyl]methyl}-N-({4-[4-(methylsulfonyl)phenoxy]phenyl}sulfonyl)-glycinate], the results for the IC50 in assay [1], in assay [2] and in assay [3] were 1200 nM, 1400 nM and more than 10000 nM, respectively.
Taken in the same sequence, the figures for `CCOC(=O)CN(C1(C(=O)NO)CCCC1)S(=O)(=O)c1ccc(Oc2ccc(S(C)(=O)=O)cc2)cc1` [Example 23, Ethyl N-{1-[(hydroxyamino)carbonyl]cyclopentyl}-N-({4-[4-(methylsulfonyl)phenoxy]phenyl}sulfonyl)glycinate] were 2100 nM, 2300 nM and more than 10000 nM.
The corresponding values for `CCOC(=O)CCN(C1(C(=O)NO)CCCC1)S(=O)(=O)c1ccc(Oc2ccc(S(C)(=O)=O)cc2)cc1` [Example 26, Ethyl N-{1-[(hydroxyamino)carbonyl]cyclopentyl}-N-({4-[4-(methylsulfonyl)phenoxy]phenyl}sulfonyl)-β-alaninate] are 300 nM, more than 100 nM and 3900 nM.
Take `CS(=O)(=O)c1ccc(Oc2ccc(S(=O)(=O)N(CC(=O)NO)Cc3ccncc3)cc2)cc1` [Example 42, N′^1′-Hydroxy-N′^2′-({4-[4-(methylsulfonyl)phenoxy]phenyl}sulfonyl)-N′^2′-(4-pyridinylmethyl)glycinamide]: the IC50 in assay [1] was less than 100 nM; in assay [2], 4300 nM; in assay [3], more than 10000 nM.
Taken in the same sequence, the figures for `CCOCCN(C1(C(=O)NO)CCCC1)S(=O)(=O)c1ccc(Oc2ccc(S(C)(=O)=O)cc2)cc1` [Example 45, 1-[(2-Ethoxyethyl)({4-[4-(methylsulfonyl)phenoxy]phenyl}sulfonyl)amino]-N-hydroxycyclopentanecarboxamide] were more than 100 nM, more than 100 nM and 4960 nM.
